Literature values, collected in US12728103B2, “Pharmaceutical composition comprising mitotane administered orally for treatment of adrenocortical carcinoma and Cushing's syndrome” (priority 2019, dated 2026).

## Clc1ccc(C(c2ccccc2Cl)C(Cl)Cl)cc1 (centres unmarked) [Mitotane, ortho,para'dichloro-diphenyl-dichloroethane]
Accumulation in fat
  concentration in fat relative to plasma: ~200 times
humans, conventional tablet
  product found in the faeces in an unmetabolized form: 60%
patients
  mitotaemia at which neurological disorders (ataxia, depressive syndrome) occur: exceeds 20 mg/L
  plasma concentration to be reached to be effective: at least 14 mg/L
patients, average
  treatment time to reach the effective plasma concentration: 3 months
